Experimental data from patent US7265116B2, “Aryl and heteroaryl substituted tetrahydroisoquinolines and use thereof” (ARM Technology, Inc., priority 1999, dated 2007).

Columns and labels:
[1] = tested on: dopamine transporter protein over the norepinephrine transporter protein; details: selectivity for dopamine transporter over norepinephrine transporter; cited from earlier work
[2] = cited from earlier work

## CN1Cc2cc(-c3ccoc3)ccc2C(c2ccccc2)C1 (stereo not drawn)
other
  melting point: 188 to 189 °C (dec.)

## COC(=O)C(c1ccccc1)C1CCCCN1 (stereo not drawn) [Methylphenidate]
[1]
  DAT/NET Ki ratio: 0.1

## CN1Cc2c(N)cccc2C(c2ccccc2)C1 (stereo not drawn) [Nomofensine]
[2]
  side effect of long term administration: fatal immune hemolytic anemia
